Measured values reported in article PMC5537225, “Therapeutic efficacy of a respiratory syncytial virus fusion inhibitor” (Nature Communications, 2017).
Where two headings read alike, the source gives them in different places.

Key:
[1] = target: prefusion-stabilized RSV F protein (DS-Cav1) (respiratory syncytial virus strain A2); experiment: crystal structure
rgRSV224 = experiment: microbe, parasite or virus in culture; assay type: cell-based, respiratory syncytial virus; conditions: for EC50: human respiratory syncytial virus, HeLa
[2] = system: rgRSV224 L141W mutant strain; assay type: cell-based, respiratory syncytial virus; conditions: mutant selected with JNJ-53718678
[3] = system: rgRSV224 D489Y mutant strain; assay type: cell-based, respiratory syncytial virus
recombinant hMPV = experiment: microbe, parasite or virus in culture; assay type: cell-based; conditions: human metapneumovirus, Vero/TMPRSS2; mean of at least 3 experiments
in vitro [4] = conditions: human
HIV-1 IIIB virus = experiment: HIV-1 assay in MT4-LTR-Luc cells; assay type: cell-based; conditions: Human immunodeficiency virus 1, IIIB; mean of at least 3 experiments
Experimental: (§1) Briefly, white 384-well plates were filled in quadruplicate using a customized robot system with serial fourfold dilutions of compound in a final volume of 10 µl culture medium. Then, 15 µl of a MT4-LTR-Luc cell suspension (4 × 10^5 cells per ml) in culture medium was added to each well followed by the addition of 15 µl HIV IIIB virus (MOI = 0.0125) in culture medium using a multidrop dispenser. […] The CC50 value was calculated on the basis of the difference of luminescence between non-treated and compound-treated cells.

[5] = system: HCV genotype 1b subgenomic replicon; experiment: microbe, parasite or virus in culture; assay type: cell-based; conditions: Hepatitis C virus; mean of at least 3 experiments
in vitro [6] = conditions: African green monkey
[7] = target: T1, prefusion L141W mutant RSV F (DS-Cav1) (Human respiratory syncytial virus A, UniProt P03420, I379V/L141W/M447V/S155C/S190F/S290C/V207L); assay type: binding; conditions: ITC; 1:1 fits could not be determined
T1 construct: purification tags incl; made in house; host or cells: FreeStyle 293 F cells, with kifunensine
T1 sequence (P03420 137-513, looked up, stated change not applied): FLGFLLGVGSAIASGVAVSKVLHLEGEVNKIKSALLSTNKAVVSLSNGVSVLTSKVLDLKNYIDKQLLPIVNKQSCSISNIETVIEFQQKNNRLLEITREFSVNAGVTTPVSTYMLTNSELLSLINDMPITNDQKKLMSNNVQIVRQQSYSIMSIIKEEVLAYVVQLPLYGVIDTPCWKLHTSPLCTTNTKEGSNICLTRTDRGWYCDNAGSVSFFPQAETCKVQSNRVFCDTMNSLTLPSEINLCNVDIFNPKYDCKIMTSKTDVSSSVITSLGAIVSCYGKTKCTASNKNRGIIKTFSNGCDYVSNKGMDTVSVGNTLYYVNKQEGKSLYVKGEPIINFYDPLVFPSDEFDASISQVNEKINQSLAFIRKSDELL
T1 sequence (P03420 26-109, stated change not applied): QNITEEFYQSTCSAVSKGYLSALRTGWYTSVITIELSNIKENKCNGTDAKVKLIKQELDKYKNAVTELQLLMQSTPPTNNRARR

RSV A and B strains = conditions: HeLa cells
Experimental: Briefly, black 384-well clear-bottom microtiter plates were filled in quadruplicate using a customized robot system with serial fourfold dilutions of compound in a final volume of 200 nl dimethylsulfoxide (DMSO). Then, 20 µl of a HeLa cell suspension (5 × 10^4 cells ml^−1) in culture medium was added to each well followed by the addition of 20 µl RSV (multiplicity of infection, MOI = 0.02) in culture medium, or 20 µl culture medium for cell controls, using a multidrop dispenser. […] In parallel, compounds were incubated for 3 days in a set of white 384-well microtiter plates and the cytotoxicity of compounds in HeLa cells (CC50) was determined by measuring the adenosine triphosphate (ATP) content of the cells using the ATPlite kit (PerkinElmer, Waltham, MA) according to the manufacturer’s instructions. The activity of the compound against non-recombinant RSV A and B strains was determined similarly by plaque assay[70].

HRV 16 = experiment: HRV assay (CPE, HeLa RH cells), HRV 16; conditions: Rhinovirus A, read-out: EC50 HRV 16
Experimental: (§2) After 3 days of incubation at 33 °C, cytopathic effect (CPE) was quantified by measuring the ATP content in compound-treated and non-treated cells with ATPlite kit according to the manufacturer’s instructions. Cytotoxicity of the compound was determined in a parallel set of plates mock-infected with cell culture medium. After 3 days of incubation at 33 °C, ATP content in compound-treated and non-treated cells was quantified with ATPlite kit.

D489Y mutant RSV = assay type: cell-based, respiratory syncytial virus; conditions: A549 cells, time-lapse imaging 48 h
in vitro [8] = conditions: African green monkey; remark: listed apart in the source
post-fusion RSV F = assay type: binding; conditions: ITC
Long strain RSV = experiment: In vivo efficacy in RSV-infected cotton rats; design: species or system Sigmodon hispidus cotton rats
RSV M37 strain = experiment: In vivo efficacy in RSV-infected neonatal lambs
[9] = system: RSV-induced pro-inflammatory cytokines and chemokines; experiment: Cytokine and chemokine analysis in RSV-infected BALB/c mice; assay type: in vivo; conditions: single 40 mg kg−1 p.o. 1 h before infection, Day 6, mean ± s.e.m., n=6
CMV-AD169-eGFP virus = experiment: microbe, parasite or virus in culture; assay type: cell-based, cytomegalovirus; conditions: Human betaherpesvirus 5, AD169, HEL 299; mean of at least 3 experiments
CVB = CVB assay in Vero Bayer cells; assay type: cell-based, Coxsackie virus B4; conditions: Enterovirus B, mean of at least 3 experiments
[10] = target: T2, full-length wild-type RSV F protein (Human respiratory syncytial virus A, UniProt P03420); experiment: Membrane-bound F protein stability assay (heat-shock flow cytometry, HEK293T cells); assay type: cell-based; conditions: 55 °C for 10 min
T2 construct: The full-length wild-type RSV F protein was transiently expressed in HEK293T cells; expressed in transfected cells; host or cells: HEK293T
T2 sequence (P03420 26-109): as the sequence (P03420 26-109, stated change not applied) above
T2 sequence (P03420 137-574): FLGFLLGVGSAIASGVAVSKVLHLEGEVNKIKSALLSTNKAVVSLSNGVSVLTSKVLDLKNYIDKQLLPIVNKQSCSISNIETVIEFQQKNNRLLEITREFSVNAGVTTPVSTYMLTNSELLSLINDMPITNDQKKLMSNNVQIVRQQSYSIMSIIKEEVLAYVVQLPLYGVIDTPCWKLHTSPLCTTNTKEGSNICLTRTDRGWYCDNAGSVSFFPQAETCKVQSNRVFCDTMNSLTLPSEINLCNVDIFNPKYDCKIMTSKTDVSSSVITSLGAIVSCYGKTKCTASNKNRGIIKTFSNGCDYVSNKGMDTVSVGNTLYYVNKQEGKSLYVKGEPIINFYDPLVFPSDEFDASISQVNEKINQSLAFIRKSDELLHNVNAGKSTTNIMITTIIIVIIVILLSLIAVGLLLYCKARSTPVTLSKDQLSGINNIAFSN
Experimental: The full-length wild-type RSV F protein was transiently expressed in HEK293T cells. Forty-eight hours post transfection, the cells were detached using an EDTA-containing buffer and the cell suspension with or without added compounds was heat-shocked for 10 min at 55 °C. The cells were stained with the CR9501 and CR9503 antibodies (1 µg ml^−1) directly labeled with AlexaFluor647 (Alexa Fluor® 647 Monoclonal Antibody Labeling Kit, Molecular Probes/Invitrogen). Propidium iodide (Molecular Probes/Invitrogen) was used as a live-dead stain. Flow Cytometry was performed on FACS Canto II instrument (BD Biosciences). The data were analyzed using FlowJo9.6.1 software. A single cell population was selected on the side and forward scatters dot-plot. Within this population, PI-negative cells were analyzed for staining with CR9501 and CR9503 antibodies. Mean fluorescence intensity was calculated and the values of the heat-shocked samples were normalized to untreated (37 °C) samples.

in vitro [11] = conditions: African green monkey; remark: listed apart in the source
Experimental: Briefly, black 384-well clear-bottom microtiter plates were filled in quadruplicate using a customized robot system with serial fourfold dilutions of compound in a final volume of 200 nl DMSO. Then, 20 µl of a Vero Bayer cell suspension (3.75 × 10^4 cells/ml) in culture medium was added to each well followed by the addition of 20 µl PIV-3-eGFP virus (MOI = 1) in culture medium, or 20 µl culture medium for cell controls, using a multidrop dispenser.

[12] = system: rgRSV224 in human bronchoepithelial cells (HBECs); experiment: Antiviral potency in air-liquid cultures of HBECs infected with rgRSV224
recombinant PIV-3 strain = experiment: microbe, parasite or virus in culture; assay type: cell-based, human parainfluenza virus 3; conditions: Human respirovirus 3, Vero; mean of at least 3 experiments
[13] = dog
[14] = target: T3, prefusion D489Y mutant RSV F (DS-Cav1) (Human respiratory syncytial virus A, UniProt P03420, D489Y/I379V/M447V/S155C/S190F/S290C/V207L); assay type: binding; conditions: ITC; 1:1 fits could not be determined
T3 construct: purification tags incl; made in house; host or cells: FreeStyle 293 F cells, with kifunensine
T3 sequence (P03420 26-109, stated change not applied): as the sequence (P03420 26-109, stated change not applied) above
T3 sequence (P03420 137-513, looked up, stated change not applied): as the sequence (P03420 137-513, looked up, stated change not applied) above

[15] = system: RSV-induced cellular influx in the lungs; experiment: Measurement of cellular influx into the lungs of RSV-infected BALB/c mice; assay type: in vivo
DENV-2 = experiment: microbe, parasite or virus in culture; assay type: cell-based; conditions: Dengue virus, read-out: EC50 DENV
in vivo [16] = conditions: 10 mg/kg
recombinant MV = experiment: MV assay in Vero/hSLAM cells; conditions: Measles morbillivirus, Vero, read-out: EC50 MV
RSV A2 = experiment: Viral titer in RSV-inoculated BALB/c mice; assay type: in vivo; conditions: single 40 mg kg−1 dose 1 h before infection
[17] = target: T4, prefusion-stabilized RSV F protein (DS-Cav1) (Human respiratory syncytial virus A, UniProt P03420, I379V/M447V/S155C/S190F/S290C/V207L); experiment: biochemical; assay type: binding; conditions: ITC
T4 construct: purification tags incl; made in house; host or cells: FreeStyle 293 F cells, with kifunensine
T4 sequence (P03420 137-513, looked up, stated change not applied): as above
T4 sequence (P03420 26-109, stated change not applied): as the sequence (P03420 26-109, stated change not applied) above

in vivo [18] = conditions: male, Beagle, dog
[19] = system: soluble prefusion ectodomain of F protein; conditions: DSF
in vitro [20] = conditions: human; remark: listed apart in the source
Experimental: Briefly, 96-well plates were filled with 100 µl/well of HepG2.117 cells (2 × 10^4 cells per well) and incubated overnight at 37 °C in a humidified atmosphere containing 5% CO2.

[21] = Cytotoxicity in non-infected MT4-LTR-Luc cells; assay type: cell-based; conditions: human, mean of at least 3 experiments, read-out: CC50 (HIV-1 row)
Experimental: as §1

HRV 1b = experiment: HRV assay (CPE, HeLa RH cells), HRV 1b; conditions: Rhinovirus A, read-out: EC50 HRV 1b
Experimental: as §2

L141W mutant RSV = assay type: cell-based, respiratory syncytial virus; conditions: A549 cells, time-lapse imaging 48 h
HeLa RH cells = conditions: human, 3 days
Experimental: as §2

[22] = mock-treated rgRSV224 during in vitro selection procedure, read-out: EC50 wild-type strain (untreated control)
[23] = 25 mg kg−1 daily starting 1 day after infection
[24] = HBECs, 100 nM, 6 or 24 h after onset of infection
[25] = RSV-infected, single 40 mg kg−1 p.o., BAL, mean ± s.e.m., n=6

prefusion-stabilized RSV F protein (DS-Cav1) (domain or fragment)
stoichiometry N [1]: 3

Cc1cn2nc([C@@H]3CCCCN3C(=O)c3cc(Cl)ccc3NS(C)(=O)=O)cc2nc1N1CC[C@H](N)C1 [GS-5806, reference compound]
EC50 (rgRSV224; [22]): 1e-10 M
EC50 (rgRSV224; read-out: EC50 parent strain (rgRSV224)): 1e-10 M
FC (fold change over wild-type strain) mutant strain L141W [2]: 379
FC (fold change over wild-type strain) mutant strain D489Y ([3]; mutant selected with JNJ-53718678): > 50,000

CS(=O)(=O)CCCn1c(Cn2c(=O)n(CC(F)(F)F)c3ccncc32)cc2cc(Cl)ccc21 [JNJ-53718678]
EC50 (recombinant hMPV): 73 µM
CC50 at 5 days (in vitro [4]): > 100 µM
improvement of activity as compared to BMS-433771 (rgRSV224): > 10 fold
EC50 (rgRSV224; [22]): 1.6e-09 M
EC50 (rgRSV224; pEC50 = -Log10(EC50)(M), preliminary SAR, read-out: pEC50 (converted)): 5.01e-10 M
EC50 (HIV-1 IIIB virus): 13.5 µM
EC50 [5]: 24.3 µM
CC50 at 3 days (in vitro [6]): > 25 µM
effect of L141W mutation on binding affinity to prefusion F [7]: dramatic reduction
activity against RSV strains from both A and B subtypes (RSV A and B strains): highly active
EC50 (HRV 16): > 100 µM
concentration required for inhibition of the infection rate, D489Y mutant RSV (D489Y mutant RSV): 10 µM
CC50 at 3 days (in vitro [8]): > 25 µM
binding to post-fusion RSV F (post-fusion RSV F): did not bind
decrease of the RSV titer in both BALF and lavaged-lung tissue (Long strain RSV; 40 mg kg−1 once daily from 24 h until Day 3 post-inoculation): 1.5 log10
decrease of RSV titer in lungs vs vehicle group (Long strain RSV; single oral prophylactic dose 100 mg kg−1, 1 h before infection, on average): 100 fold
reduction of the viral titer (Long strain RSV; single-dose therapeutic treatment 40 mg kg−1, 24 h after infection): moderate reduction
reduction of the viral RNA titer in BALF and lavaged-lung tissue vs vehicle (RSV M37 strain; [23]): > 95%
reduction of the viral RNA titer in BALF vs vehicle (RSV M37 strain; [23]): ~ 22 fold
reduction of the viral RNA titer in lavaged-lung tissue vs vehicle (RSV M37 strain; [23]): ~43 fold
microscopic lung lesions (RSV M37 strain; 25 mg kg−1 initiated 1 day after infection): lacked microscopic lesions
formation of gross RSV-associated lung lesions (RSV M37 strain; once daily starting 1 day after infection): complete inhibition
RSV infectious titer in BALF and lavaged-lung tissue (RSV M37 strain; oral once daily 1, 5 or 25 mg kg−1 starting 1 day after infection, Day 6): (almost) complete eradication
CCL2 mean concentration in BALF [9]: 118 ± 17 pg/mL
CCL3 mean concentration in BALF [9]: 77 ± 11 pg/mL
CCL5 mean concentration in BALF [9]: 111 ± 13 pg/mL
CXCL1 mean concentration in BALF [9]: 145 ± 23 pg/mL
CXCL9 mean concentration in BALF [9]: 1,878 ± 135 pg/mL
CXCL10 mean concentration in BALF [9]: 2,265 ± 332 pg/mL
IFN mean concentration in BALF [9]: 465 ± 109 pg/mL
IL-1 mean concentration in BALF [9]: 171 ± 8 pg/mL
IL-6 mean concentration in BALF [9]: 29 ± 5 pg/mL
IL-12p40 mean concentration in BALF [9]: 0.7 ± 0.4 pg/mL
IL-17 mean concentration in BALF [9]: 3.2 ± 0.3 pg/mL
EC50 (CMV-AD169-eGFP virus): 17.4 µM
EC50 (CVB): 3.73 µM
EC50 ([3]; rgRSV224 carrying a D489Y resistance mutation in F, read-out: EC50 (mutant RSV)): 4.1 µM
fraction of prefusion F on the surface of the cells after heat shock [10]: concentration-dependent increase
CC50 (in vitro [11]): > 100 µM
CC50 at 2 days (in vitro [11]): > 100 µM
reduction of viral replication vs non-treated cells [12, 24]: ~ 1.3 log10
reduction of viral titer vs non-treated cells [12, 24]: ~ 1.3 log10
EC50 ([12]; human respiratory syncytial virus, read-out: calculated EC50): 0.0012 µM
EC50 (recombinant PIV-3 strain): 26.3 µM
F ([13]; PO 5 mg kg−1 vs IV 1 mg kg−1): 89%
CLp as fraction of LBF ([13]; male, Beagle, in vivo, iv, 1 mg/kg): ~ 27 % LBF
effect of D489Y mutation on binding affinity to prefusion F [14]: dramatic reduction
reduction of influx of neutrophils ([15]; BALB/c mice, single 40 mg kg−1 dose 1 h before infection): ~ 5.5 fold
CD4+ T cells, mean cell number [15, 25]: 986 ± 113
CD8+ T cells, mean cell number [15, 25]: 2,757 ± 447
Monocytes (CD115+ infiltrating into the lung), mean cell number [15, 25]: 33 ± 9
NK cells, mean cell number [15, 25]: 1,059 ± 130
Neutrophils, mean cell number [15, 25]: 160 ± 40
T cells, mean cell number [15, 25]: 2,869 ± 671
EC50 (DENV-2): 17.7 µM
Cmax (in vivo [16]): 254 ng/mL
Tmax (in vivo [16]): 1 h
AUC(0-t) (in vivo [16]; AUC0-7 lung): 2020 ng·h/mL
AUC(0-t) (in vivo [16]; AUC0-7 plasma): 680 ng·h/mL
EC50 (recombinant MV): > 100 µM
viral titer in BALF and lavaged lung (RSV A2): significant decrease
binding stoichiometry [17]: one inhibitor per trimer
Kd ([17]; read-out: equilibrium dissociation constant (KD)): 0.0074 µM
Vd (in vivo [18]; in vivo, iv, 1 mg/kg): 2.8 L/kg
AUC(0-inf) (in vivo [18]; in vivo, po, 5 mg/kg): 9690 ng·h/mL
Cmax (in vivo [18]; in vivo, po, 5 mg/kg): 1120 ng/mL
Tmax (in vivo [18]; in vivo, po, 5 mg/kg): 1.7 h
half-life (in vivo [18]; plasma): 4.1 h
clearance (in vivo [18]; plasma, iv, 1 mg/kg): 9 mL/min/kg
melting temperature (Tm) of soluble prefusion F ectodomain [19]: concentration-dependent increase
CC50 at 4 days (in vitro [20]): > 100 µM
CC50 at 2 days [21]: 21.6 µM
EC50 (HRV 1b): > 100 µM
concentration required for inhibition of the infection rate, L141W mutant RSV (L141W mutant RSV): 100 nM
CC50 (HeLa RH cells): > 100 µM
